Reference: a compilation of properties of binary mixtures (doi:10.1021/je950194b)

Assay: excess molar enthalpy (molar enthalpy of mixing); xn = mol fraction of the nth substance listed
Details: 313.15 K, 100 kPa

CCC(=O)O + C1CCCCC1
Details | excess molar enthalpy [kcal/mol]
x1 = 0.0571 | 0.0337
x1 = 0.108 | 0.0657
x1 = 0.1537 | 0.0913
x1 = 0.195 | 0.112
x1 = 0.3264 | 0.154
x1 = 0.4209 | 0.168
x1 = 0.4921 | 0.171
x1 = 0.5924 | 0.167
x1 = 0.6856 | 0.147
x1 = 0.744 | 0.129
x1 = 0.8134 | 0.0982
x1 = 0.8971 | 0.0507
x1 = 0.9208 | 0.0359
x1 = 0.9458 | 0.0196

CCC(=O)O + C1CCOCC1
Details | excess molar enthalpy [kcal/mol]
x1 = 0.0528 | -0.0263
x1 = 0.1003 | -0.0504
x1 = 0.1433 | -0.0679
x1 = 0.1823 | -0.0813
x1 = 0.3085 | -0.112
x1 = 0.4009 | -0.121
x1 = 0.6675 | -0.101
x1 = 0.8006 | -0.0648
x1 = 0.8893 | -0.0335
x1 = 0.9146 | -0.0229
x1 = 0.9414 | -0.0127
x1 = 0.9698 | -0.00598

CCC(=O)O + C1COCCO1
Details | excess molar enthalpy [kcal/mol]
x1 = 0.087 | -0.0294
x1 = 0.125 | -0.0351
x1 = 0.16 | -0.039
x1 = 0.2222 | -0.0406
x1 = 0.2759 | -0.0392
x1 = 0.3636 | -0.0318
x1 = 0.4325 | -0.0239
x1 = 0.5334 | -0.0103
x1 = 0.6957 | 0.0131
x1 = 0.7742 | 0.0206
x1 = 0.8728 | 0.0203
x1 = 0.9014 | 0.0174
x1 = 0.9648 | 0.00813

CCC(=O)O + CCCCCCCC
Details | excess molar enthalpy [kcal/mol]
x1 = 0.1539 | 0.065
x1 = 0.2144 | 0.0856
x1 = 0.2668 | 0.104
x1 = 0.3531 | 0.126
x1 = 0.4212 | 0.138
x1 = 0.5219 | 0.146
x1 = 0.5928 | 0.146
x1 = 0.7661 | 0.11
x1 = 0.8137 | 0.0932
x1 = 0.8676 | 0.0715
x1 = 0.8973 | 0.0566
x1 = 0.9291 | 0.0406

CCC(=O)O + Cc1cc(C)cc(C)c1
Details | excess molar enthalpy [kcal/mol]
x1 = 0.0444 | 0.0055
x1 = 0.0548 | 0.00574
x1 = 0.0718 | 0.00598
x1 = 0.134 | 0.00335
x1 = 0.1884 | -0.000239
x1 = 0.2364 | -0.00287
x1 = 0.3171 | -0.00526
x1 = 0.3824 | -0.00717
x1 = 0.4815 | -0.00813
x1 = 0.5532 | -0.0086
x1 = 0.65 | -0.00813
x1 = 0.7359 | -0.00645
x1 = 0.7879 | -0.00574
x1 = 0.8479 | -0.0043
x1 = 0.9176 | -0.00287
x1 = 0.9571 | -0.00191
